From PubChem BioAssay (NCI)
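Assay format: 96-well plates, 48-hour exposure. TGI is the concentration that stops growth completely.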

How the values were obtained:
Test in all cases: NCI anticancer screen, dose series, 48 h
786-0 renal = system: 786-0 renal
A498 renal = system: A498 renal
A549 NSCLC = system: A549 NSCLC
ACHN renal = system: ACHN renal
CAKI-1 renal = system: CAKI-1 renal
CCRF-CEM leukemia = system: CCRF-CEM leukemia
COLO 205 colon = system: COLO 205 colon
DLD-1 colon = system: DLD-1 colon
DMS 273 small cell lung = system: DMS 273 small cell lung
EKVX NSCLC = system: EKVX NSCLC
HCC-2998 colon = system: HCC-2998 colon
HCT-116 colon = system: HCT-116 colon
HCT-15 colon = system: HCT-15 colon
HL-60(TB) leukemia = system: HL-60(TB) leukemia
HOP-18 NSCLC = system: HOP-18 NSCLC
HOP-62 NSCLC = system: HOP-62 NSCLC
HOP-92 NSCLC = system: HOP-92 NSCLC
HT29 colon = system: HT29 colon
IGROV1 ovarian = system: IGROV1 ovarian
K-562 leukemia = system: K-562 leukemia
KM12 colon = system: KM12 colon
KM20L2 colon = system: KM20L2 colon
LOX IMVI melanoma = system: LOX IMVI melanoma
LXFL 529 NSCLC = system: LXFL 529 NSCLC
M14 melanoma = system: M14 melanoma
MALME-3M melanoma = system: MALME-3M melanoma
MOLT-4 leukemia = system: MOLT-4 leukemia
NCI-H226 lung = system: NCI-H226 lung
NCI-H23 lung = system: NCI-H23 lung
NCI-H460 lung = system: NCI-H460 lung
NCI-H522 lung = system: NCI-H522 lung
OVCAR-3 ovarian = system: OVCAR-3 ovarian
OVCAR-4 ovarian = system: OVCAR-4 ovarian
OVCAR-5 ovarian = system: OVCAR-5 ovarian
OVCAR-8 ovarian = system: OVCAR-8 ovarian
RPMI-8226 leukemia = system: RPMI-8226 leukemia
RXF 393 renal = system: RXF 393 renal
RXF-631 renal = system: RXF-631 renal
SF-268 CNS = system: SF-268 CNS
SF-295 CNS = system: SF-295 CNS
SF-539 CNS = system: SF-539 CNS
SK-MEL-2 melanoma = system: SK-MEL-2 melanoma
SK-MEL-28 melanoma = system: SK-MEL-28 melanoma
SK-MEL-5 melanoma = system: SK-MEL-5 melanoma
SK-OV-3 ovarian = system: SK-OV-3 ovarian
SN12C renal = system: SN12C renal
SNB-19 CNS = system: SNB-19 CNS
SNB-75 CNS = system: SNB-75 CNS
SNB-78 CNS = system: SNB-78 CNS
SR leukemia = system: SR leukemia
SW-620 colon = system: SW-620 colon
TK-10 renal = system: TK-10 renal
U251 CNS = system: U251 CNS
UACC-257 melanoma = system: UACC-257 melanoma
UACC-62 melanoma = system: UACC-62 melanoma
UO-31 renal = system: UO-31 renal
XF 498 CNS = system: XF 498 CNS

O=[N+]([O-])C1C2C=CC(C2)[C@H]1c1ccccc1Cl (some centres not stated)
TGI (786-0 renal): > 100 µM | TGI (A498 renal): > 100 µM | TGI (A549 NSCLC): > 100 µM | TGI (ACHN renal): > 100 µM | TGI (CAKI-1 renal): > 10 µM | TGI (CCRF-CEM leukemia): > 100 µM | TGI (COLO 205 colon): > 100 µM | TGI (DLD-1 colon): > 100 µM | TGI (DMS 273 small cell lung): > 100 µM | TGI (EKVX NSCLC): > 100 µM | TGI (HCC-2998 colon): > 100 µM | TGI (HCT-116 colon): > 100 µM | TGI (HCT-15 colon): > 100 µM | TGI (HL-60(TB) leukemia): > 92.5 µM | TGI (HOP-18 NSCLC): > 100 µM | TGI (HOP-62 NSCLC): > 10 µM | TGI (HOP-92 NSCLC): > 75.6 µM | TGI (HT29 colon): > 100 µM | TGI (IGROV1 ovarian): > 31.6 µM | TGI (K-562 leukemia): > 100 µM | TGI (KM12 colon): > 100 µM | TGI (KM20L2 colon): > 100 µM | TGI (LOX IMVI melanoma): > 100 µM | TGI (LXFL 529 NSCLC): > 100 µM | TGI (M14 melanoma): > 100 µM | TGI (MALME-3M melanoma): > 100 µM | TGI (MOLT-4 leukemia): > 100 µM | TGI (NCI-H226 lung): 92.2 µM | TGI (NCI-H23 lung): > 100 µM | TGI (NCI-H460 lung): > 100 µM | TGI (NCI-H522 lung): > 31.6 µM | TGI (OVCAR-3 ovarian): > 31.6 µM | TGI (OVCAR-4 ovarian): > 10 µM | TGI (OVCAR-5 ovarian): > 88.2 µM | TGI (OVCAR-8 ovarian): > 100 µM | TGI (RPMI-8226 leukemia): > 100 µM | TGI (RXF 393 renal): > 100 µM | TGI (RXF-631 renal): > 100 µM | TGI (SF-268 CNS): > 100 µM | TGI (SF-295 CNS): > 100 µM | TGI (SF-539 CNS): > 100 µM | TGI (SK-MEL-2 melanoma): > 100 µM | TGI (SK-MEL-28 melanoma): > 100 µM | TGI (SK-MEL-5 melanoma): > 100 µM | TGI (SK-OV-3 ovarian): > 31.6 µM | TGI (SN12C renal): > 100 µM | TGI (SNB-19 CNS): > 100 µM | TGI (SNB-75 CNS): 60.7 µM | TGI (SNB-78 CNS): > 100 µM | TGI (SR leukemia): > 100 µM | TGI (SW-620 colon): > 100 µM | TGI (TK-10 renal): > 100 µM | TGI (U251 CNS): > 100 µM | TGI (UACC-257 melanoma): > 100 µM | TGI (UACC-62 melanoma): > 31.6 µM | TGI (UO-31 renal): 97.7 µM | TGI (XF 498 CNS): > 100 µM
